Experiment [1] is described as follows: In vivo cholesterol biosynthesis in hamsters (plasma lipids). Details: species or system hamsters (male F1 B). The method, then:
(c) In vivo cholesterol biosynthesis in hamsters was assayed using the following protocol: four groups of hamsters (male F1 B, fed 0.5% cholesterol 10% coconut oil), average weight 120-150 gm, were run in parallel (N=10 per group). The animals were initially fed the atherogenic diet for 20 days to determine their pre-drug plasma lipid levels. They were randomized so that each group had the same average plasma total cholesterol. The three of the four groups were started on their respective drug containing diet (day 0), while the remaining group served as controls.

A further experiment concerns HepG2 cells. In words: HepG2 Cell Culture Model--14C-Acetate Incorporation Assay (cholesterol biosynthesis). In kind it is cell-based. To be noted: Homo sapiens. The method, then:
(a) Isolated Hepatocyte cholesterol biosynthesis assay: HepG2 Cell Culture Model--14C-Acetate Incorporation Assay
HepG2 cells obtained from the American Type Culture Collection were routinely passed in RPMI-1640 plus 10% fetal bovine serum (FBS) and were subculture into 35 mm diameter wells for experiments. […] The LDS medium supplement was prepared according to Cham et al., J. Lipid Res., 17: 176-181, (1976). After about 16 hours in LDS containing media, test compounds were added in dimethylsulfoxide vehicle (0.5% v/v final conc.) for the period of time indicated in the data (generally 4 hours). Cholesterol synthesis was then directly determined by the incorporation of 2-14C-acetate (1.8-3.0 mCi/mmol) into digitonin-precipitable sterols essentially as described for the rat hepatocyte method above. Greater than 97% of the radiolabelled sterol isolated by this procedure was cholesterol as judged by HPLC. Percent inhibition was calculated from the average of duplicates or triplicates vs. controls receiving vehicle.

The subject of experiment [2] is hydroxymethylglutaryl coenzyme A reductase (HMGcoA reductase). In words: HMGCo-A reductase suppression. It counts as cell-based.
Where [3] appears, read: plasma, Day 0 (pre-drug), atherogenic diet, N=10 per group.
Setting [4] is: HepG2, read-out: HEPG2 Sterol biosynthesis inhibition @ 10 μM.
[5] abbreviates: HepG2 cells, 14C-acetate incorporation, generally 4 hours, read-out: HepG2 @ 10 μM (inhibition of cholesterol biosynthesis).

Like-named read-outs stand apart in the source and are kept apart here.

`CC(C)=CCCC(C)=CCCC(C)=CCSC(C)(C)Sc1ccc(O)cc1` [Example 11, 4-[[1-Methyl-1-[(3,7,11-trimethyl-2,6,10-dodecatrienyl)thio]ethyl]thio]phenol]: in experiment [1] (F1 B hamsters, over control), the “reduction in LDL-cholesterol over control” value is -25% and the “reduction in overall cholesterol over control” value was -18%. In experiment [1] (setting [3]), the “LDL Cholesterol, Day 0” value amounted to 319 ± 89 mg/dL and the “Total cholesterol, Day 0” value came out at 399 ± 82 mg/dL. Also, in experiment [1] (plasma, Day 21, drug containing diet, control 333 ± 137), the “LDL Cholesterol, Day 21” value was 256 ± 85 mg/dL. In addition, the “Total cholesterol, Day 21” value in experiment [1] (plasma, Day 21, drug containing diet, control 407 ± 144) amounted to 336 ± 90 mg/dL. Moreover, the inhibition at 10 µM with HepG2 cells (setting [4]) was found to be 63%. Besides, the inhibition at 10 µM in the experiment with HepG2 cells (setting [5]) turned out to be 63%. Further, the “HMGCo-A reductase suppression @ 10 μM” value in experiment [2] is listed as 37%.
In the case of `CC(=O)Oc1ccc(SC(C)(C)SCC=C(C)CCC=C(C)CCC=C(C)C)c(C)c1` [Example 15, 3-Methyl-4-[[1-methyl-1-[(3,7,11-trimethyl-2,6,10-dodecatrienyl)thio]ethyl]thio]phenol acetate], the inhibition at 10 µM with HepG2 cells (setting [5]) was found to be 75%.
Regarding `CCOC(=O)C(C)(SCC=C(C)CCC=C(C)CCC=C(C)C)Sc1cc(C)c(O)c(C)c1` (stereo not drawn) [Example 27, Propanoic Acid, 2-[(4-hydroxy-3,5-dimethylphenyl)thio]-2-[(3,7,11-trimethyl-2,6,10-dodecatrienyl)thio]ethyl ester], the inhibition at 10 µM with HepG2 cells (setting [4]) and in the experiment on HepG2 cells (setting [5]) was 79% in each case. The “HMGCo-A reductase suppression @ 10 μM” value in experiment [2] is 51%. Further, the “down-regulation of HMGcoA reductase (in words)” value in experiment [2] (in words) is listed as “down-regulate the key enzyme in the cholesterol biosynthesis”.
Regarding `CC(C)=CCCC(C)=CCCC(C)=CCSC(C)(C)Sc1ccc(F)cc1` [Example 36, 4-Fluoro-1-[[1-methyl-1-[(3,7,11-trimethyl-2,6,10-dodecatrienyl)thio]ethyl]thio]benzene], in the experiment with HepG2 cells (setting [5]), the inhibition at 10 µM came to 20%.
